Laboratory results reported in patent publication US20060014702A1, “Antimicrobial agent” (priority 2002, published 2006).
Converted amounts (≈) assume the structure as drawn.

Tests used:
Test in all cases: Minimum Inhibitory Concentration (MIC) assay
Format in all cases: cell-based
Bacillus subtilis = conditions: LB broth, 37° C., 6 hours
Experimental: (§1) Inhibition of various bacteria by compounds 4 (n=9) and 6 (n=9) is described in Table 1. The biological data were determined by minimum Inhibitory Concentration (MIC) Assays. Each compound was added to 4 ml LB broth at a starting concentration of 200 μg/ml. Serial dilutions were then made, 1 in 2 at each step, ending with 0.2 μg/ml. 5 μL of a saturated culture was added to each serial dilution, and incubated at 37° C. with shaking for 6 hours. The MIC was then determined as the lowest concentration showing inhibited bacterial growth.

Enterococcus faecalis = conditions: LB broth, 37° C., 6 hours
Experimental: as §1

Staphylococcus aureus = conditions: LB broth, 37° C., 6 hours
Experimental: as §1

Mycobacterium smegmatis = conditions: Mycolicibacterium smegmatis, LB broth, 37° C., 6 hours
Experimental: as §1

| SMILES | MIC (Bacillus subtilis) | MIC (Enterococcus faecalis) | MIC (Staphylococcus aureus) | MIC (Mycobacterium smegmatis) |
| --- | --- | --- | --- | --- |
| CCCCCCCCCCC(CCCCCCCCCC)S[C@@H]1O[C@@H]([C@H](O)CO)[C@H](O)[C@H]1O [6 (n = 9), 11-heneicosanyl 1-thio-β-D-galactofuranoside] | > 200 µg/mL | 200 µg/mL (≈ 408 µM) | < 0.2 µg/mL | < 0.2 µg/mL |
| CCCCCCCCCCS[C@@H]1O[C@@H]([C@H](O)CO)[C@H](O)[C@H]1O [4 (n = 9), Decyl 1-thio-β-D-galactofuranoside] | 25 µg/mL (≈ 74.3 µM) | > 200 µg/mL | < 0.2 µg/mL | < 0.2 µg/mL |
